These compounds were tested against T1, recombinant human DHODH (Homo sapiens, UniProt Q02127) (assay: Inhibition assay of DHODH activity, human enzyme). Conditions: class symbol (head prints μM, key in nM).
T1 construct: provided by Prof; M. Löffler, Marburg, Germany (gift, not a commercial vendor)
T1 sequence (Q02127 whole entry): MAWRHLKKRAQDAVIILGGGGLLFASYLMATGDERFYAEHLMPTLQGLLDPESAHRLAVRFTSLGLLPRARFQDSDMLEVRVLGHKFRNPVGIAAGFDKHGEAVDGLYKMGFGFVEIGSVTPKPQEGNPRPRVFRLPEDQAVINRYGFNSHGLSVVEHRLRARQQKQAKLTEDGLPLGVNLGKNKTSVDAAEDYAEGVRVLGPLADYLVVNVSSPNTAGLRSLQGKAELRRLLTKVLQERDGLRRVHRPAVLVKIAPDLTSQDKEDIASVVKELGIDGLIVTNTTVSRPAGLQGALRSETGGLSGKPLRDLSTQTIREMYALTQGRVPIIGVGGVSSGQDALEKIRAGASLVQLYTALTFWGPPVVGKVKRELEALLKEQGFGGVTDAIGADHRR
Type: biochemical
Description: The standard assay mixture contained 50 μM decyclo ubichinone, 100 μM dihydroorotate, 60 μM 2,6-dichloroindophenol, as well as 20 mU DHODH. The volume activity of the recombinant enzyme used was 30 U/ml. Measurements were conducted in 50 mM TrisHCl (150 mM KCl, 0.1% Triton X-100, pH 8.0) at 30° C. in a final volume of 1 ml. The components were mixed, and the reaction was started by adding dihydroorotate. The course of reaction was followed by spectrophotometrically measuring the decrease in absorption at 600 nm for 2 min.
Inhibitory studies were conducted in a standard assay with additional variable amounts of inhibitor.
These investigations were carried out with recombinant human as well as with recombinant murine DHODH provided by Prof. M. Löffler, Marburg, Germany [M. Löffler, Chem. Biol. Interact.
`O=C(O)C1=C(C(=O)Nc2ccc(-c3ccccc3F)cc2)CCC1` [Compound 13, 2-((2′-fluoro-[1,1′-biphenyl]-4-yl)carbamoyl)cyclopent-1-enecarboxylic acid] was tested, and the IC50 was < 0.8 µM. With `O=C(O)C1=C(C(=O)Nc2ccc(-c3ccccc3Cl)cc2)CCC1` [Compound 14, 2-((2′-chloro-[1,1′-biphenyl]-4-yl)carbamoyl)cyclopent-1-enecarboxylic acid] the IC50 was < 0.8 µM. In the case of `COc1ccccc1-c1ccc(NC(=O)C2=C(C(=O)O)CCC2)cc1` [Compound 15, 2-((2′-methoxy-[1,1′-biphenyl]-4-yl)carbamoyl)cyclopent-1-enecarboxylic acid], the IC50 is reported as < 0.8 µM. `O=C(O)C1=C(C(=O)Nc2ccc(OCc3c(F)cccc3F)cc2)CCC1` [Compound 16, 2-((4-((2,6-difluorobenzyl)oxy)phenyl)carbamoyl)cyclopent-1-enecarboxylic acid] was tested, and the IC50 was < 0.8 µM. In the case of `CCOc1ccccc1-c1ccc(NC(=O)C2=C(C(=O)O)CCC2)c(F)c1` [Compound 17, 2-((2′-ethoxy-3-fluoro-[1,1′-biphenyl]-4-yl)carbamoyl)cyclopent-1-enecarboxylic acid], the IC50 is reported as < 0.8 µM. For `N#Cc1cccc(-c2ccc(NC(=O)C3=C(C(=O)O)CCC3)cc2Cl)c1` [Compound 18, 2-((2-chloro-3′-cyano-[1,1′-biphenyl]-4-yl)carbamoyl)cyclopent-1-enecarboxylic acid], the IC50 was < 0.8 µM. With `COc1ccc(-c2ccc(NC(=O)C3=C(C(=O)O)CCC3)cc2Cl)cc1` [Compound 19, 2-((2-chloro-4′-methoxy-[1,1′-biphenyl]-4-yl)carbamoyl)cyclopent-1-enecarboxylic acid] the IC50 was < 0.8 µM. For `COc1ccc(-c2ccc(NC(=O)C3=C(C(=O)O)CCC3)cc2Cl)cn1` [Compound 22, 2-((3-chloro-4-(6-methoxypyridin-3-yl)phenyl)carbamoyl)cyclopent-1-enecarboxylic acid], the IC50 was < 0.8 µM. `COc1ccc(-c2ccc(NC(=O)C3=C(C(=O)O)CCC3)cc2C)cc1` [Compound 23, 2-((4′-methoxy-2-methyl-[1,1′-biphenyl]-4-yl)carbamoyl)cyclopent-1-enecarboxylic acid] was tested, and the IC50 was < 0.8 µM. For `O=C(O)C1=C(C(=O)Nc2cc(Br)c(OCc3cc(F)ccc3F)c(Br)c2)CCC1` [Compound 24], the IC50 was < 0.8 µM. With `O=C(O)C1=C(C(=O)Nc2ccc(-c3cccc(F)c3)cc2F)CCC1` [Compound 27, 2-((3,3′-difluoro-[1,1′-biphenyl]-4-yl)carbamoyl)cyclopent-1-enecarboxylic acid] the IC50 was < 0.8 µM. For `O=C(O)C1=C(C(=O)Nc2cc(Br)c(OCc3ccccc3)c(Br)c2)CSC1` [Compound 29, 4-((4-(benzyloxy)-3,5-dibromophenyl)carbamoyl)-2,5-dihydrothiophene-3-carboxylic acid], the IC50 was < 0.8 µM. With `Cc1cc(-c2cc(F)c(NC(=O)C3=C(C(=O)O)CCC3)c(F)c2)ccc1F` [Compound 30, 2-((3,4′,5-trifluoro-3′-methyl-[1,1′-biphenyl]-4-yl)carbamoyl)cyclopent-1-enecarboxylic acid] the IC50 was < 0.8 µM. With `COc1ccccc1-c1ccc(NC(=O)C2=C(C(=O)O)CCC2)c([N+](=O)[O-])c1` [Compound 32, 2-((2′-methoxy-3-nitro-[1,1′-biphenyl]-4-yl)carbamoyl)cyclopent-1-enecarboxylic acid] the IC50 was < 0.8 µM. For `COc1cc(-c2ccccc2)ccc1NC(=O)C1=C(C(=O)O)CCC1` [Compound 33, 2-((3-methoxy-[1,1′-biphenyl]-4-yl)carbamoyl)cyclopent-1-enecarboxylic acid], the IC50 was < 0.8 µM. For `COc1cc(-c2ccccc2Cl)ccc1NC(=O)C1=C(C(=O)O)CCC1` [Compound 34, 2-((2′-chloro-3-methoxy-[1,1′-biphenyl]-4-yl)carbamoyl)cyclopent-1-enecarboxylic acid], the IC50 was < 0.8 µM. In the case of `COc1cc(-c2cccc(OC(F)(F)F)c2)ccc1NC(=O)C1=C(C(=O)O)CCC1` [Compound 35, 2-((3-methoxy-3′-(trifluoromethoxy)-[1,1′-biphenyl]-4-yl)carbamoyl)cyclopent-1-enecarboxylic acid], the IC50 is reported as < 0.8 µM. `COc1cc(-c2ccccc2F)ccc1NC(=O)C1=C(C(=O)O)CCC1` [Compound 36, 2-((2′-fluoro-3-methoxy-[1,1′-biphenyl]-4-yl)carbamoyl)cyclopent-1-enecarboxylic acid] was tested, and the IC50 was < 0.8 µM. `COc1ccc(-c2ccc(NC(=O)C3=C(C(=O)O)CCC3)c(OC)c2)c(OC)c1` [Compound 37, 2-((2′,3,4′-trimethoxy-[1,1′-biphenyl]-4-yl)carbamoyl)cyclopent-1-enecarboxylic acid] was tested, and the IC50 was < 0.8 µM. With `CCOc1cccc(-c2ccc(NC(=O)C3=C(C(=O)O)CCC3)c(OC)c2)c1` [Compound 38, 2-((3′-ethoxy-3-methoxy-[1,1′-biphenyl]-4-yl)carbamoyl)cyclopent-1-enecarboxylic acid] the IC50 was < 0.8 µM. `COc1cccc(-c2ccc(NC(=O)C3=C(C(=O)O)CCC3)c(OC)c2)c1` [Compound 39, 2-((3,3′-dimethoxy-[1,1′-biphenyl]-4-yl)carbamoyl)cyclopent-1-enecarboxylic acid] was tested, and the IC50 was < 0.8 µM. With `O=C(O)C1=C(C(=O)Nc2ccc(-c3ccccc3Cl)cc2)CSC1` [Compound 41, 4-((2′-chloro-[1,1′-biphenyl]-4-yl)carbamoyl)-2,5-dihydrothiophene-3-carboxylic acid] the IC50 was < 0.8 µM. In the case of `Cc1cccc(Sc2ccc(NC(=O)C3=C(C(=O)O)CCC3)cc2)c1` [Compound 42, 2-((4-(m-tolylthio)phenyl)carbamoyl)cyclopent-1-enecarboxylic acid], the IC50 is reported as < 0.8 µM. `O=C(O)C1=C(C(=O)Nc2ccc(-c3cccc(OC(F)(F)F)c3)cc2)CCC1` [Compound 43, 2-((3′-(trifluoromethoxy)-[1,1′-biphenyl]-4-yl)carbamoyl)cyclopent-1-enecarboxylic acid] was tested, and the IC50 was < 0.8 µM. In the case of `O=C(O)C1=C(C(=O)Nc2ccc(-c3cc4ccccc4s3)cc2)CCC1` [Compound 44, 2-((4-(benzo[b]thiophen-2-yl)phenyl)carbamoyl)cyclopent-1-enecarboxylic acid], the IC50 is reported as < 0.8 µM. For `O=C(O)C1=C(C(=O)Nc2ccc(-c3cc4ccccc4s3)cc2F)CCC1` [Compound 45, 2-((4-(benzo[b]thiophen-2-yl)-2-fluorophenyl)carbamoyl)cyclopent-1-enecarboxylic acid], the IC50 was < 0.8 µM. For `CCOc1cccc(-c2ccc(NC(=O)C3=C(C(=O)O)CCC3)c(F)c2)c1` [Compound 46, 2-((3′-ethoxy-3-fluoro-[1,1′-biphenyl]-4-yl)carbamoyl)cyclopent-1-enecarboxylic acid], the IC50 was < 0.8 µM. With `O=C(O)C1=C(C(=O)Nc2ccc(Oc3ccccc3)cc2)CCC1` [Compound 50, 2-((4-phenoxyphenyl)carbamoyl)cyclopent-1-enecarboxylic acid] the IC50 was < 0.8 µM. With `COc1ccccc1-c1ccc(NC(=O)C2=C(C(=O)O)CCC2)c(Cl)c1` [Compound 53, 2-((3-chloro-2′-methoxy-[1,1′-biphenyl]-4-yl)carbamoyl)cyclopent-1-enecarboxylic acid] the IC50 was < 0.8 µM. `COc1ccccc1-c1ccc(NC(=O)C2=C(C(=O)O)CCC2)cc1Cl` [Compound 54, 2-((2-chloro-2′-methoxy-[1,1′-biphenyl]-4-yl)carbamoyl)cyclopent-1-enecarboxylic acid] was tested, and the IC50 was < 0.8 µM. `COc1ccccc1-c1c(F)c(F)c(NC(=O)C2=C(C(=O)O)CCC2)c(F)c1F` [Compound 56, 2-((2,3,5,6-tetrafluoro-2′-methoxy-[1,1′-biphenyl]-4-yl)carbamoyl)cyclopent-1-enecarboxylic acid] was tested, and the IC50 was < 0.8 µM. With `COc1ccccc1-c1ccc(NC(=O)C2=C(C(=O)O)CCC2)c(C)c1` [Compound 57, 2-((2′-methoxy-3-methyl-[1,1′-biphenyl]-4-yl)carbamoyl)cyclopent-1-enecarboxylic acid] the IC50 was < 0.8 µM. In the case of `COc1ccccc1-c1cc(Cl)c(NC(=O)C2=C(C(=O)O)CCC2)c(Cl)c1` [Compound 58, 2-((3,5-dichloro-2′-methoxy-[1,1′-biphenyl]-4-yl)carbamoyl)cyclopent-1-enecarboxylic acid], the IC50 is reported as < 0.8 µM. `CCOc1ccccc1-c1cc(F)c(NC(=O)C2=C(C(=O)O)CCC2)c(F)c1` [Compound 62, 2-((2′-ethoxy-3,5-difluoro-[1,1′-biphenyl]-4-yl)carbamoyl)cyclopent-1-enecarboxylic acid] was tested, and the IC50 was < 0.8 µM. For `CCOc1cccc(-c2cc(F)c(NC(=O)C3=C(C(=O)O)CCC3)c(F)c2)c1` [Compound 63, 2-((3′-ethoxy-3,5-difluoro-[1,1′-biphenyl]-4-yl)carbamoyl)cyclopent-1-enecarboxylic acid], the IC50 was < 0.8 µM. With `O=C(O)C1=C(C(=O)Nc2c(F)cc(-c3cccc(OC(F)(F)F)c3)cc2F)CCC1` [Compound 64, 2-((3,5-difluoro-3′-(trifluoromethoxy)-[1,1′-biphenyl]-4-yl)carbamoyl)cyclopent-1-enecarboxylic acid] the IC50 was < 0.8 µM. In the case of `O=C(O)C1=C(C(=O)Nc2c(F)cc(-c3ccccc3Cl)cc2F)CCC1` [Compound 65, 2-((2′-chloro-3,5-difluoro-[1,1′-biphenyl]-4-yl)carbamoyl)cyclopent-1-enecarboxylic acid], the IC50 is reported as < 0.8 µM. With `O=C(O)C1=C(C(=O)Nc2c(F)cc(-c3ccccc3F)cc2F)CCC1` [Compound 66, 2-((2′,3,5-trifluoro-[1,1′-biphenyl]-4-yl)carbamoyl)cyclopent-1-enecarboxylic acid] the IC50 was < 0.8 µM. For `COc1ccc(-c2cc(F)c(NC(=O)C3=C(C(=O)O)CCC3)c(F)c2)c(OC)c1` [Compound 67, 2-((3,5-difluoro-2′,4′-dimethoxy-[1,1′-biphenyl]-4-yl)carbamoyl)cyclopent-1-enecarboxylic acid], the IC50 was < 0.8 µM. In the case of `O=C(O)C1=C(C(=O)Nc2ccc(OCc3ccccc3C(F)(F)F)c(Cl)c2)CCC1` [Compound 68], the IC50 is reported as < 0.8 µM.

Reference: US8653138B2, “Calcium salts of compounds as anti-inflammatory, immunomodulatory and anti-proliferatory agents” (4SC MG, priority 2010, dated 2014)
